For five compounds, MIC results are on record in ChEMBL document CHEMBL4308875, “Synthesis, antituberculosis studies and biological evaluation of new quinoline derivatives carrying 1,2,4-oxadiazole moiety” (Bioorg Med Chem Lett, 2019).

Converted amounts (≈) assume the structure as drawn.

Usually MIC stands for the smallest concentration in the dilution series that meets the test's criterion for growth inhibition. Low values mean greater potency, high ones weaker potency.

What all share (assay type): functional
What all share (details): 168 h

The subject of assay [1] is Mycobacterium tuberculosis. In words: Antitubercular activity against moxifloxacin-resistant Mycobacterium tuberculosis after 7 days by resazurin dye based colorimetric assay. (In general: Resazurin is reduced to fluorescent resorufin, in cell work by metabolically active cells.)
The subject of assay [2] is Mycobacterium tuberculosis. In words: Antitubercular activity against isoniazid-resistant Mycobacterium tuberculosis after 7 days by resazurin dye based colorimetric assay.
The test system of assay [3] is Mycobacterium tuberculosis. Put plainly: Antitubercular activity against streptomycin-resistant Mycobacterium tuberculosis after 7 days by resazurin dye based colorimetric assay.
Assay [4] deals with Mycobacterium tuberculosis. In words: Antitubercular activity against kanamycin-resistant Mycobacterium tuberculosis after 7 days by resazurin dye based colorimetric assay.
For assay [5], the system named is Mycobacterium tuberculosis. Put plainly: Antitubercular activity against rifampicin-resistant Mycobacterium tuberculosis after 7 days by resazurin dye based colorimetric assay.
Assay [6] concerns Mycobacterium tuberculosis. Put plainly: Antitubercular activity against d-cycloserine-resistant Mycobacterium tuberculosis after 7 days by resazurin dye based colorimetric assay.

Consider `CC(C)c1ccc(-c2nc(CN3CCN(c4ccnc5cc(Cl)ccc45)CC3)no2)cc1`, for which the minimal inhibitory concentration (MIC) in assay [1] turned out to be 4.01 µg/mL (≈ 8.95 µM); in assay [2], 4.17 µg/mL (≈ 9.31 µM); in assay [3], 28.6 µg/mL (≈ 63.8 µM); in assay [4], 3.24 µg/mL (≈ 7.23 µM); in assay [5] it was 3.81 µg/mL (≈ 8.51 µM); in assay [6] it was 3.68 µg/mL (≈ 8.21 µM).

For the compound `NNC(=O)c1ccncc1` [ISONIAZID], the minimal inhibitory concentration (MIC) in assay [1] was 0.49 µg/mL (≈ 3.57 µM); in assay [2], over 8 µg/mL; in assay [3] it was 1 µg/mL (≈ 7.29 µM); in assay [4], 0.49 µg/mL (≈ 3.57 µM); in assay [5], 0.49 µg/mL (≈ 3.57 µM); in assay [6] it was 3.78 µg/mL (≈ 27.6 µM).

As for `CC(=O)NC[C@H]1CN(c2ccc(N3CCOCC3)c(F)c2)C(=O)O1` [LINEZOLID], the minimum inhibitory concentration (MIC) in assay [1] worked out at 3.65 µg/mL (≈ 10.8 µM); in assay [2], 2.33 µg/mL (≈ 6.91 µM); in assay [3], 14.1 µg/mL (≈ 41.7 µM); in assay [4], 1.91 µg/mL (≈ 5.66 µM); in assay [5] it was 1.68 µg/mL (≈ 4.98 µM); in assay [6], 10.3 µg/mL (≈ 30.7 µM).

For the compound `COc1c(N2C[C@@H]3CCCN[C@@H]3C2)c(F)cc2c(=O)c(C(=O)O)cn(C3CC3)c12` [MOXIFLOXACIN], the MIC was over 16 µg/mL in assay [1]; 0.49 µg/mL (≈ 1.22 µM) in assay [2]; 0.94 µg/mL (≈ 2.34 µM) in assay [3]; 0.21 µg/mL (≈ 0.523 µM) in assay [4]; 0.42 µg/mL (≈ 1.05 µM) in assay [5]; 0.46 µg/mL (≈ 1.15 µM) in assay [6].

With `CO[C@H]1/C=C/O[C@@]2(C)Oc3c(C)c(O)c4c(O)c(c(/C=N/N5CCN(C)CC5)c(O)c4c3C2=O)NC(=O)/C(C)=C\C=C\[C@H](C)[C@H](O)[C@@H](C)[C@@H](O)[C@@H](C)[C@H](OC(C)=O)[C@@H]1C` [RIFAMPIN], the minimum inhibitory concentration (MIC) was 0.23 µg/mL (≈ 0.279 µM) in assay [1]; under 0.02 µg/mL in assay [2]; 0.05 µg/mL (≈ 0.0608 µM) in assay [3]; under 0.02 µg/mL in assay [4]; over 4 µg/mL in assay [5]; under 0.02 µg/mL in assay [6].
